Test results as given in patent US20240351988A1, “ARYL HYDROCARBON RECEPTOR MODULATORS AND THEIR USE IN THE TREATMENT OF DISEASES AND DISORDERS” (Allianthera (Suzhou) Biopharmaceutical Co., Ltd., priority 2021, published 2024).

Target: T1, Human Aryl Hydrocarbon Receptor (AhR) (Homo sapiens, UniProt P35869)
T1 construct: purchased INDIGO Bioscience #1B06001-32; host or cells: AhR Reporter Cell (kit's proprietary reporter cells)
T1 sequence (P35869 11-848): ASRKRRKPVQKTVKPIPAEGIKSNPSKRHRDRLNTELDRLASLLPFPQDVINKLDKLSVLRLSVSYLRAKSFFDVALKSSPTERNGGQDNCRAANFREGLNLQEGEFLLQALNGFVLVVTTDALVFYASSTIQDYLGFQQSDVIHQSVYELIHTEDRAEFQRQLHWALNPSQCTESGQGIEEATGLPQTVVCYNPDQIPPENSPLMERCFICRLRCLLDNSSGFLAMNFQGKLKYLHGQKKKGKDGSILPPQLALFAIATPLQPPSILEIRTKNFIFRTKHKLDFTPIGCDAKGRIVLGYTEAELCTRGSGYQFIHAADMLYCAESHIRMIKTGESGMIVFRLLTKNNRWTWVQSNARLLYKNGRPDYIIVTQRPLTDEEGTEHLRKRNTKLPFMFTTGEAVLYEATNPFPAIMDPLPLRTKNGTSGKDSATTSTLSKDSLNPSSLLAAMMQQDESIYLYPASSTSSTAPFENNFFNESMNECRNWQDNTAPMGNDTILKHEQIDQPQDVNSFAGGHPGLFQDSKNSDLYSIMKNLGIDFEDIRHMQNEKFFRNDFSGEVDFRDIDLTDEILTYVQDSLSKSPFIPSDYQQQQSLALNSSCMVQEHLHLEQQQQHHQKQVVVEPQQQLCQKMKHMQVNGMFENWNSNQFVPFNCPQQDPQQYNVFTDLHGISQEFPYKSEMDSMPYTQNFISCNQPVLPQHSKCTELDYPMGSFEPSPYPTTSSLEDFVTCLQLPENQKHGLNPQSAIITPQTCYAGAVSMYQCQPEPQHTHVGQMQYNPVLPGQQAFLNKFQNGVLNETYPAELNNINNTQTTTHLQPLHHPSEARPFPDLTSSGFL
Experiment: AHR antagonist reporter assay in human cell line (INDIGO AhR Reporter Assay System, kynurenic acid activated)
Assay type: cell-based
Settings: 200 μM kynurenic acid, 24 hours, luciferase; read-out: AhR Reporter Assay KA Antagonist Mode: IC50
Procedure: The AhR reporter assay was performed following the protocol of the Human Aryl Hydrocarbon Receptor (AhR) Reporter Assay System (INDIGO Bioscience, #1B06001-32). AhR Reporter Cell was thawed and pre-incubated in Cell Recovery Medium (CRM) for 6 hours. The media was then removed and the cells were incubated with Compound Screening Medium (CSM) supplemented with 200 μM kynurenic acid for 24 hours in the absence (negative control) or presence of increasing concentrations of test compounds (typical dilution: […], 3.2 nM, 16 nM, 80 nM, 400 nM, 2 μM, 10 μM in duplicates). For positive inhibition control, cells activated with 200 μM kynurenic acid were incubated in the presence of literature AHR antagonists; alternatively un-activated cells were used as positive inhibition control. Following 24 hours incubation, the media was removed and Luciferase Detection Reagent (LDR) added. The firefly luciferase activity was quantified using a plate reader. Results were normalized by positive and negative controls.

| IC50 [nM] | SMILES |
| --- | --- |
| < 100 | COC[C@H](C)NC(=O)c1cc(-c2ccc(OC(F)(F)F)cc2)nn(-c2cnn(C)c2)c1=O [Compound 69] |
| 100 to 400 | COC[C@H](C)NC(=O)c1cc(-c2ccc(OC)cc2)nn(-c2cnn(C)c2)c1=O [Compound 74] |
| > 400 | COC[C@H](C)NC(=O)c1cc(-c2ccc(N(C)C)nc2)nn(-c2cnn(C)c2)c1=O [Compound 75] |
| > 400 | COC[C@H](C)NC(=O)c1cc(-c2cnc(C(F)(F)F)s2)nn(-c2cnn(C)c2)c1=O [Compound 80] |
| > 400 | COC[C@H](C)NC(=O)c1cc(-c2ccc(C#N)cc2)nn(-c2cnn(C)c2)c1=O [Compound 83] |
| > 400 | COC[C@H](C)NC(=O)c1cc(-c2ccc(Cl)cc2F)nn(-c2cnn(C)c2)c1=O [Compound 85] |
| > 400 | COC[C@H](C)NC(=O)c1cc(-c2ccc(F)c(Cl)c2)nn(-c2cnn(C)c2)c1=O [Compound 102] |
| > 400 | COC[C@H](C)NC(=O)c1cc(-c2ccc(F)c(F)c2)nn(-c2cnn(C)c2)c1=O [Compound 103] |
| < 100 | COC[C@H](C)NC(=O)c1cc(-c2cccc(Cl)c2)nn(-c2cnn(C)c2)c1=O [Compound 104] |
| > 400 | COC[C@H](C)NC(=O)c1cc(-c2cccc(F)c2)nn(-c2cnn(C)c2)c1=O [Compound 105] |
| > 400 | COC[C@H](C)NC(=O)c1cc(-c2ccc(F)cc2Cl)nn(-c2cnn(C)c2)c1=O [Compound 107] |
| > 400 | COC[C@H](C)NC(=O)c1cc(-c2ccccc2F)nn(-c2cnn(C)c2)c1=O [Compound 108] |
| > 400 | COC[C@H](C)NC(=O)c1cc(-c2ccc(F)cc2F)nn(-c2cnn(C)c2)c1=O [Compound 109] |
| > 400 | COC[C@H](C)NC(=O)c1cc(-c2ccccc2Cl)nn(-c2cnn(C)c2)c1=O [Compound 118] |
| > 400 | COC[C@H](C)NC(=O)c1cc(-c2ccc3ccc(OC)nc3c2)nn(-c2cnn(C)c2)c1=O [Compound 122] |
| > 400 | COC[C@H](C)NC(=O)c1cc(-c2ccc3ncccc3c2)nn(-c2cnn(C)c2)c1=O [Compound 126] |
| > 400 | COC[C@H](C)NC(=O)c1cc(-c2ccc3c(C)ccnc3c2)nn(-c2cnn(C)c2)c1=O [Compound 129] |
| > 400 | COC[C@H](C)NC(=O)c1cc(-c2ccc3nc(N)ccc3c2)nn(-c2cnn(C)c2)c1=O [Compound 131] |
| > 400 | COC[C@H](C)NC(=O)c1cc(-c2ccc3cnccc3c2)nn(-c2cnn(C)c2)c1=O [Compound 133] |
| > 400 | COC[C@H](C)NC(=O)c1cc(-c2ccc3c(c2)OCO3)nn(-c2cnn(C)c2)c1=O [Compound 140] |
| 100 to 400 | CNC(=O)C(C)(C)NC(=O)c1cc(-c2ccc(OC(F)(F)F)cc2)nn(-c2cnn(C)c2)c1=O [Compound 174] |

Continued, molecule first:

| SMILES | IC50 [nM] |
| --- | --- |
| COC[C@H](C)NC(=O)c1cc(-c2cnc(C3CC3)s2)nn(-c2cnn(C)c2)c1=O [Compound 77] | > 400 |
| COC[C@H](C)NC(=O)c1cc(-c2cnc(C)s2)nn(-c2cnn(C)c2)c1=O [Compound 79] | > 400 |
| COC[C@H](C)NC(=O)c1cc(-c2cnc(C(C)=O)s2)nn(-c2cnn(C)c2)c1=O [Compound 87] | > 400 |
| COC[C@H](C)NC(=O)c1cc(-c2cnc(C(C)C)s2)nn(-c2cnn(C)c2)c1=O [Compound 88] | < 100 |
| COC[C@H](C)NC(=O)c1cc(-c2cnc(N(C)C)nc2)nn(-c2cnn(C)c2)c1=O [Compound 89] | 100 to 400 |
| COC[C@H](C)NC(=O)c1cc(-c2cnc(N)nc2)nn(-c2cnn(C)c2)c1=O [Compound 91] | > 400 |
| CNC(=O)C(C)(C)NC(=O)c1cc(-c2ccc(Cl)cc2)nn(-c2cccc(F)c2)c1=O [Compound 96] | < 100 |
| COC[C@H](C)NC(=O)c1cc(N2CC3(CCCC3)C2)nn(-c2cnn(C)c2)c1=O [Compound 110] | > 400 |
| COC[C@H](C)NC(=O)c1cc(-c2ccc3c(c2)CCCO3)nn(-c2cnn(C)c2)c1=O [Compound 111] | > 400 |
| COC[C@H](C)NC(=O)c1cc(N2CCC(C)CC2)nn(-c2cnn(C)c2)c1=O [Compound 114] | > 400 |
| COC[C@H](C)NC(=O)c1cc(C2CCCCC2)nn(-c2cnn(C)c2)c1=O [Compound 115] | > 400 |
| COC[C@H](C)NC(=O)c1cc(N2CCC3(CCCC3)CC2)nn(-c2cnn(C)c2)c1=O [Compound 116] | > 400 |
| COC[C@H](C)NC(=O)c1cc(N2CC3(CCCCC3)C2)nn(-c2cnn(C)c2)c1=O [Compound 117] | > 400 |
| COC[C@H](C)NC(=O)c1cc(C2CCC(C)(C)CC2)nn(-c2cnn(C)c2)c1=O [Compound 119] | > 400 |
| COC[C@H](C)NC(=O)c1cc(-c2cc3cccnc3cc2F)nn(-c2cnn(C)c2)c1=O [Compound 121] | > 400 |
| COC[C@H](C)NC(=O)c1cc(-c2ccc3oc(C)nc3c2)nn(-c2cnn(C)c2)c1=O [Compound 124] | > 400 |
| COC[C@H](C)NC(=O)c1cc(N2C[C@H]3CCCC[C@H]3C2)nn(-c2cnn(C)c2)c1=O [Compound 125] | < 100 |
| COC[C@H](C)NC(=O)c1cc(N2CCC(C)(C)CC2)nn(-c2cnn(C)c2)c1=O [Compound 127] | > 400 |
| COC[C@H](C)NC(=O)c1cc(-c2ccc3c(c2)OCCO3)nn(-c2cnn(C)c2)c1=O [Compound 128] | > 400 |
| COC[C@H](C)NC(=O)c1cc(-c2ccc3cccnc3c2F)nn(-c2cnn(C)c2)c1=O [Compound 130] | 100 to 400 |

| SMILES | IC50 [nM] |
| --- | --- |
| COC[C@H](C)NC(=O)c1cc(-c2ccc3sc(C)nc3c2)nn(-c2cnn(C)c2)c1=O [Compound 132] | > 400 |
| COC[C@H](C)NC(=O)c1cc(N2C(=O)C(C)(C)c3ccccc32)nn(-c2cnn(C)c2)c1=O [Compound 134] | > 400 |
| COC[C@H](C)NC(=O)c1cc(-n2cc(C)c(C)n2)nn(-c2cnn(C)c2)c1=O [Compound 135] | > 400 |
| COC[C@H](C)NC(=O)c1cc(-n2cc(C(F)(F)F)cn2)nn(-c2cnn(C)c2)c1=O [Compound 136] | > 400 |
| COC[C@H](C)NC(=O)c1cc(-n2ccc(C3CC3)n2)nn(-c2cnn(C)c2)c1=O [Compound 137] | > 400 |
| COC[C@H](C)NC(=O)c1cc(-n2ccc(C(F)(F)F)n2)nn(-c2cnn(C)c2)c1=O [Compound 138] | > 400 |
| COC[C@H](C)NC(=O)c1cc(-c2ccc3c(c2)N(C)CC3)nn(-c2cnn(C)c2)c1=O [Compound 141] | > 400 |
| COC[C@H](C)NC(=O)c1cc(-n2ccc(-c3ccc(Cl)cc3)n2)nn(-c2cnn(C)c2)c1=O [Compound 142] | < 100 |
| COC[C@H](C)NC(=O)c1cc(-n2nc(C(F)(F)F)cc2C)nn(-c2cnn(C)c2)c1=O [Compound 143] | > 400 |
| COC[C@H](C)NC(=O)c1cc(-c2cc(F)c3ncccc3c2F)nn(-c2cnn(C)c2)c1=O [Compound 144] | > 400 |
| COC[C@H](C)NC(=O)c1cc(N2CCC3(CCCCC3)C2)nn(-c2cnn(C)c2)c1=O [Compound 145] | > 400 |
| COC[C@H](C)NC(=O)c1cc(C2=CCC(C)CC2)nn(-c2cnn(C)c2)c1=O (stereo partly shown) [Compound 149] | < 100 |
| COC[C@H](C)NC(=O)c1cc(-n2ccc3ccccc32)nn(-c2cnn(C)c2)c1=O [Compound 151] | > 400 |
| COC[C@H](C)NC(=O)c1cc(C2CCC(C)CC2)nn(-c2cnn(C)c2)c1=O (stereo partly shown) [Compound 152] | > 400 |
| COC[C@H](C)NC(=O)c1cc(-c2cc3c(O)ncnc3cc2F)nn(-c2cnn(C)c2)c1=O [Compound 154] | > 400 |
| COC[C@H](C)NC(=O)c1cc(-n2nnc3ccccc32)nn(-c2cnn(C)c2)c1=O [Compound 158] | > 400 |
| COC[C@H](C)NC(=O)c1cc(-n2nc3ccccc3n2)nn(-c2cnn(C)c2)c1=O [Compound 159] | 100 to 400 |
| C[C@@H](CO)NC(=O)c1cc(-n2ccc(-c3ccc(Cl)cc3)n2)nn(-c2cnn(C)c2)c1=O [Compound 162] | < 100 |
| CN(C)C(=O)C(C)(C)NC(=O)c1cc(-c2ccc(C(F)(F)F)nc2)nn(-c2cnn(C)c2)c1=O [Compound 166] | > 400 |
| C[C@H](NC(=O)c1cc(-c2ccc(C(=O)N(C)C)cc2)nn(-c2cccc(F)c2)c1=O)C(=O)N(C)C [Compound 178] | > 400 |
